Earlier results as cited in patent publication US20030236237A1, “Method of treating symptoms of hormonal variation, including hot flashes, using tachykinin receptor antagonist” (priority 2000, published 2003).
Read-outs that look alike come from different tables or passages of the source.

Experiments:
hot flashes [1] = settings: low dose oral; men and women; short term study
[2] = tested on: neurokinin B gene expression in the hypothalamic arcuate nucleus (ArN); settings: ovariectomized primate treated with estrogen
[3] = tested on: neurokinin B gene expression in the hypothalamic arcuate nucleus (ArN); settings: ovariectomized rat treated with estrogen
hot flashes [4] = settings: transdermal; tamoxifen-treated women
hot flash = settings: humans

For `CC(=O)O[C@]1(C(C)=O)CC[C@H]2[C@@H]3C=C(C)C4=CC(=O)CC[C@]4(C)[C@H]3CC[C@@]21C` [megestrol acetate], the “frequency of hot flashes” value (hot flashes [1]) is given as “shown to reduce the frequency of hot flashes”.
In the case of estrogen, the “ArN changes (increased NKB gene expression)” value [2] is listed as “completely prevents” and the “ArN changes (increased NKB gene expression)” value [3] is listed as “completely prevents”.
For `Clc1cccc(Cl)c1N=C1NCCN1` [clonidine], the “frequency and severity of hot flashes” value (hot flashes [4]) is listed as “only a moderate effect”.
In the case of substance P [substance-P], the “clinical hot flash after systemic injection” value (hot flash) is listed as “results in a clinical hot flash”.
